Earlier results as cited in US20050025723A1, “Sunburn treatment and sunburn prevention method” (priority 2000, published 2005).
“Also recorded” adds a separate entry of the source.

Experiments:
[1] = system: fever; details: compared with parent peptide α-MSH or α-MSH(11-13); literature statements
[2] = system: inflammation; details: in vitro and in vivo; compared with parent molecule or the L-form tripeptide; literature statements
[3] = system: learning and memory; details: in vivo
[4] = system: melanocytes and melanoma cells

Substance | antipyretic potency / activity (reducing fever) [1] | anti-inflammatory activity / potency [2] | learning and memory behavioral effects [3] | biological activity on melanocytes and melanoma cells [4]
MEHFRWG [α-MSH sequence (4-10)] | little | little | has learning and memory behavioral effects | 
Ac-[D-K11]-α-MSH 11-13-NH2 |  | same general potency as the L-form of the tripeptide |  | 
10-13 sequence: α-MSH 10-13 sequence formed by addition of glycine to α-MSH(11-13) (GKPV; Designed polypeptide with anti-inflammatory, anti-bacterial, anti-fungal and antipyretic properties.) | slightly decreased potency |  |  | 
9-13 sequence: α-MSH 9-13 sequence (WGKPV; C-terminal sequences of alpha-MSH) | almost devoid of activity |  |  | 
lysine-proline-valine [KPV] | parallel those of the parent molecule | parallel those of the parent molecule; also recorded: effective over a very broad range of concentrations, including picomolar concentrations |  | 
8-13 sequence: α-MSH 8-13 sequence (RWGKPV; Designed polypeptide with anti-inflammatory, anti-bacterial, anti-fungal and antipyretic properties.) | greater than that of the 11-13 sequence |  |  | 
[Nle^4,D-Phe^7]α-MSH | approximately ten times more potent than the parent peptide |  |  | marked biological activity
